test system: PDE IV; assay: Inhibition of PDE IV activity (method of Bauer and Schwabe, adapted to microtiter plates); assay type: biochemical; conditions: Hemmung der PDE IV-Aktivität
Excerpt: Der Aktivitätstest wurde nach der Methode von Bauer und Schwabe durchgeführt, die auf Mikrotiterplatten adaptiert wurde (Naunyn-Schmiedeberg's Arch. Pharmacol. 1980, 311, 193-198). Hierbei erfolgt im ersten Schritt die PDE-Reaktion. In einem zweiten Schritt wird das entstandene 5'-Nukleotid durch eine 5'-Nukleotidase des Schlangengiftes von ophiophagus hannah (King Cobra) zum ungeladenen Nukleosid gespalten. Im dritten Schritt wird das Nukleosid auf Ionenaustauschsäulen vom verbliebenen geladenen Substrat getrennt. Die Säulen werden mit 2 ml 30 mM Ammoniumformiat (pH 6,0) direkt in Minivials eluiert, in die noch 2 ml Szintillatorflüssigkeit zur Zählung gegeben wird.
Die für die erfindungsgemäßen Verbindungen ermittelten Hemmwerte ergeben sich aus der folgenden Tabelle A, in der die Nummern der Verbindungen den Nummern der Beispiele entsprechen. Tabelle A

**Q.** With COc1ccc(C(O)Cc2ccncc2)c2cc(C(C)C)oc12 (racemic) [Verbindung 2, (±)-4-[1-Hydroxy-2-(pyrid-4-yl)ethyl]-2-isopropyl-7-methoxybenzofuran] as the molecule, how does the “PDE4 -logIC50” value read?
**A.** Its value is 6,86.

**Q.** For COc1ccc(CCc2ccncc2)c2cc(C(C)C)oc12 [Verbindung 6, 2-Isopronyl-7-methoxy-4-[2-(pyrid-4-yl)ethyl]benzofuran], which “PDE4 -logIC50” value is on record?
**A.** Its value is 8,22.

**Q.** How did the “PDE4 -logIC50” value turn out when COc1ccc(/C=C(\C#N)c2cccnc2)c2cc(C3CCCC3)oc12 [Verbindung 8, (Z)-4-[2-Cyano-2-(pyrid-3-yl)ethenyl]-2-cyclopentyl-7-methoxy-benzofuran] was run?
**A.** The value was 6,51.

**Q.** Which “PDE4 -logIC50” value does the source give for COc1ccc(C(O)Cc2ccncc2)c2cc(C3CCCC3)oc12 (racemic) [Verbindung 1] here?
**A.** Its value is 6,45.

**Q.** With COc1ccc(C=C(C#N)c2ccncc2)c2cc(C(C)C)oc12 (mixture of isomers) [Verbindung 9, (E/Z)-4-[2-Cyano-2-(pyrid-4-yl)ethenyl]-2-isopropyl-7-methoxybenzofuran] as the molecule, how does the “PDE4 -logIC50” value read?
**A.** The value was 6,64.

**Q.** For COc1ccc(CC(C#N)c2ccncc2)c2cc(C3CCCC3)oc12 (racemic) [Verbindung 10, (±)-4-[2-Cyano-2-(pyrid-4-yl)ethyl]-2-cyclopentyl-7-methoxybenzofuran], which “PDE4 -logIC50” value is on record?
**A.** Its value is 6,56.

**Q.** How did the “PDE4 -logIC50” value turn out when COc1ccc(/C=C/c2ccncc2)c2cc(C(C)C)oc12 [Verbindung 4, (E)-2-Isopropyl-4-[2-(pyrid-4-yl)ethenyl]-7-methoxybenzofuran] was run?
**A.** The value was 7,21.

**Q.** How did the “PDE4 -logIC50” value turn out when COc1ccc(CC(C#N)c2cccnc2)c2cc(C3CCCC3)oc12 (racemic) [Verbindung 11, (±)-4-[2-Cyano-2-(pyrid-3-yl)ethyl]-2-cyclopentyl-7-methoxybenzofuran] was run?
**A.** Its value is 6,99.

**Q.** How did the “PDE4 -logIC50” value turn out when COc1ccc(/C=C(\C#N)c2ccncc2)c2cc(C3CCCC3)oc12 [Verbindung 7, (Z)-4-[2-Cyano-2-(pyrid-4-yl)ethenyl]-2-cyclopentyl-7-methoxy-benzofuran] was run?
**A.** The value was 6,29.

**Q.** How did the “PDE4 -logIC50” value turn out when COc1ccc(CC(C#N)c2ccncc2)c2cc(C(C)C)oc12 (racemic) [Verbindung 12, (±)-4-[2-Cyano-2-(pyrid-4-yl)ethyl]-2-isopropyl-7-methoxybenzofuran] was run?
**A.** Its value is 7,26.

**Q.** COc1ccc(/C=C/c2ccncc2)c2cc(C3CCCC3)oc12 [Verbindung 3, (E)-2-Cyclopentyl-4-[2-(pyrid-4-yl)ethenyl]-7-methoxybenzofuran] was tested. Which “PDE4 -logIC50” value did it give?
**A.** The value was 6,77.

**Q.** Which “PDE4 -logIC50” value does the source give for COc1ccc(CCc2ccncc2)c2cc(C3CCCC3)oc12 [Verbindung 5, 2-Cyclopentyl-7-methoxy-4-[2-(pyrid-4-yl)ethyl]benzofuran] here?
**A.** The value was 7,97.
